Reference: ChEMBL document CHEMBL4680259, “Discovery of bazedoxifene analogues targeting glycoprotein 130” (Eur J Med Chem, 2020)
Calls of active or inactive are those of the source. The rule behind the calls is not given here.

How the values were obtained:
A549 [1] = test: Antitumor activity against human A549 cells xenografted in nude mouse assessed as decrease in tumor weight at 20 mg/kg, ip administered daily for 21 days and measured every 2 to 3 days; type: functional; details: 504 h, time 21 day
[2] = Half life in rat at 5 mg/kg, ig; type: ADME, organism-based; details: in vivo, po
A549 [3] = test: Induction of apoptosis in human A549 cells assessed as increase in cleaved PARP level at 3 to 9 uM incubated for 24 hrs by Western blot analysis; type: functional, cell-based; details: dose 3-9 µM
[4] = Volume of distribution in rat at 0.5 mg/kg, iv; type: ADME, organism-based; details: in vivo
[5] = target: T1, Interleukin-6 receptor subunit beta (Homo sapiens) (UniProt P40189); test: Inhibition of GP130 in human A549 cells assessed as decrease in IL6-induced STAT3 phosphorylation at Y705 residue at 9 uM incubated for 24 hrs by western blot analysis; type: cell-based
T1 sequence (whole entry): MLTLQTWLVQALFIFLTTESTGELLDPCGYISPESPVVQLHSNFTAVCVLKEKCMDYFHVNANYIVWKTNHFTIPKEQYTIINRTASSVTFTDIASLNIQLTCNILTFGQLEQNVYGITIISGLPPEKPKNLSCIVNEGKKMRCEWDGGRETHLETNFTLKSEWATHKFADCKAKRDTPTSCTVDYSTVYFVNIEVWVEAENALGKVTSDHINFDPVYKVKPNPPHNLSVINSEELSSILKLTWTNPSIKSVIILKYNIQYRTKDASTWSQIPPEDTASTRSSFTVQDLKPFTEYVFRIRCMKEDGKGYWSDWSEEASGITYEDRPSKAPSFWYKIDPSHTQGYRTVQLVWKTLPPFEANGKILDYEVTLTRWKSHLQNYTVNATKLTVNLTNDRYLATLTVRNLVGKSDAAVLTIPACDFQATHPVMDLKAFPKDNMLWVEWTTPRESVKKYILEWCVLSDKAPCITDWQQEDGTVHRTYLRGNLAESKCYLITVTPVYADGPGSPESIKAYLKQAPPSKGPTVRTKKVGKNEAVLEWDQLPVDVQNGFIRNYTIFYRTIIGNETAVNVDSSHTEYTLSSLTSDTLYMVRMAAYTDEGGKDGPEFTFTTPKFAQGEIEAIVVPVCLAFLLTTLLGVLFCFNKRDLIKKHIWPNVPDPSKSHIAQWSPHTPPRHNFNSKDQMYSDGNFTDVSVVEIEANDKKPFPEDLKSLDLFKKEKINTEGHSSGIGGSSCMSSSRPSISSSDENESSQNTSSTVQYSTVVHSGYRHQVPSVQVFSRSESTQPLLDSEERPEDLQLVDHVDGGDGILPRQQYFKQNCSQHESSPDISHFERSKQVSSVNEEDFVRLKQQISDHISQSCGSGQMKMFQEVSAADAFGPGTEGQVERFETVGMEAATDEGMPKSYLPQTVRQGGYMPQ

[6] = target: T1, Interleukin-6 receptor subunit beta (Homo sapiens); test: Inhibition of GP130 in human A549 cells assessed as decrease in JAK2 phosphorylation at 3 to 9 uM incubated for 24 hrs by western blot analysis; type: cell-based; details: dose 3-9 µM
A549 [7] = test: Inhibition of colony formation in human A549 cells incubated for 24 hrs by crystal violet staining based assay; type: functional, cell-based; details: dose 2-10 µM
A549 [8] = test: Induction of apoptosis in human A549 cells assessed as early apoptotic cells at 3 uM incubated for 24 hrs by annexin V-FITC and propidium iodide staining based flow cytometry analysis (reference value: 0.5 %); type: functional
[9] = Acute toxicity in ICR mouse assessed as mortality at 120 mg/kg measured after 2 weeks; type: organism-based; details: in vivo, 336 h
A549 [10] = test: Induction of apoptosis in human A549 cells assessed as increase in cleaved caspase-3 level at 3 to 9 uM incubated for 24 hrs by Western blot analysis; type: functional, cell-based; details: dose 3-9 µM
A549 [11] = test: Induction of ROS generation in human A549 cells assessed as fold increase in ROS level at 3 uM after 24 hrs by DCFH-DA staining based flow cytometric analysis relative to control; type: functional
A549 [12] = test: Induction of apoptosis in human A549 cells assessed as late apoptotic cells at 6 uM incubated for 24 hrs by annexin V-FITC and propidium iodide staining based flow cytometry analysis (reference value: 1.4 %); type: functional
A549 [13] = test: Induction of apoptosis in human A549 cells assessed as early apoptotic cells at 6 uM incubated for 24 hrs by annexin V-FITC and propidium iodide staining based flow cytometry analysis (reference value: 0.5 %); type: functional
A549 [14] = test: Induction of apoptosis in human A549 cells assessed as viable cells at 6 uM incubated for 24 hrs by annexin V-FITC and propidium iodide staining based flow cytometry analysis (reference value: 97.7 %); type: functional; details: read-out: Activity
[15] = Half life in rat at 0.5 mg/kg, iv; type: ADME, organism-based; details: in vivo
[16] = Clearance in rat at 0.5 mg/kg, iv; type: ADME, organism-based; details: in vivo
[17] = target: T1, Interleukin-6 receptor subunit beta (Homo sapiens); test: Inhibition of GP130 in human A549 cells assessed as decrease in STAT3 phosphorylation at Y705 residue at 3 to 9 uM incubated for 24 hrs by western blot analysis; type: cell-based; details: dose 3-9 µM
A549 [18] = test: Potency index, ratio of bazedoxifene IC50 to test compound IC50 for antiproliferative activity against human A549 cells after 24 hrs by MTT assay; type: functional
[19] = Mean residence time in rat at 0.5 mg/kg, iv; type: ADME, organism-based; details: in vivo
A549 [20] = test: Induction of apoptosis in human A549 cells assessed as necrotic cells at 9 uM incubated for 24 hrs by annexin V-FITC and propidium iodide staining based flow cytometry analysis (reference value: 0.4 %); type: functional
[21] = target: T1, Interleukin-6 receptor subunit beta (Homo sapiens); test: Binding affinity to GP130 in human A549 cell lysates assessed as decrease in pronase mediated protein degradation by measuring increase in abundance of GP130 band at 100 to 1000 uM preincubated for 1 hr followed by pronase addition for 30 mins by DARTS assay; type: subcellular; details: dose 100-1000 µM, time 90.0 min
A549 [22] = test: Induction of apoptosis in human A549 cells assessed as late apoptotic cells at 3 uM incubated for 24 hrs by annexin V-FITC and propidium iodide staining based flow cytometry analysis (reference value: 1.4 %); type: functional
Mus musculus = test: Inhibition of phosphorylated STAT3 levels in tumor tissue of nude mouse xenografted with human A549 cells at 10 to 20 mg/kg, ip administered daily for 21 days by western blot analysis; type: functional, organism-based; details: dose 10-20 mg/kg, time 21.0 day
A549 [23] = test: Induction of ROS generation in human A549 cells assessed as fold increase in ROS level at 6 uM after 24 hrs by DCFH-DA staining based flow cytometric analysis relative to control; type: functional
[24] = target: T1, Interleukin-6 receptor subunit beta (Homo sapiens); test: Binding affinity to D2/D3 domain of FLAG-tagged GP130 (unknown origin) expressed in HEK293 cells assessed as inhibition of rhIL6/Myc-tagged IL6R interaction with GP130 at 10 uM preincubated for 4 hrs followed by stimulation with recombinant human IL6 for 30 mins by co-immunoprecipitation method; type: cell-based; details: time 270.0 min
[25] = target: T1, Interleukin-6 receptor subunit beta (Homo sapiens); test: Inhibition of GP130 in human A549 cells assessed as reduction in survivin protein expression after 24 hrs by Western blot analysis; type: cell-based; details: dose 3-9 µM

With `NC(=O)N1N=C(c2ccc(C(F)(F)F)cc2)CC1c1cn(Cc2ccc(OCCN3CCCCCC3)cc2)c2ccc(Br)cc12` (stereo unspecified) the inhibition in vivo at 20 mg/kg (A549 [1]) was 59%, the half-life [2] was 9.8 h and the Activity (A549 [3]) was “Active”. For the same molecule, the Vd [4] was 14.6 L/kg, the Activity [5] was “Active” and the Activity [6] was “Active”. For the same molecule, the inhibition (A549 [7]) was “Dose-dependent effect”, the Activity (A549 [8]) was 0.9% and the Activity [9] was “Non-Toxic”. For the same molecule, the Activity (A549 [10]) was “Active”, the “fold change (FC)” value (A549 [11]) was 1.93 and the Activity (A549 [12]) was 4.9%. The Activity (A549 [13]) was 1.7%, the viability at 6 µM (A549 [14]) was 91.5% and the half-life [15] was 11.8 h. The clearance [16] was 14.5 mL/min/kg, the Activity [17] was “Active” and the “Ratio IC50” value (A549 [18]) was 5.5. The MRT [19] was 13.7 h, the Activity (A549 [20]) was 2.6% and the Activity [21] was “Active”. The Activity (A549 [22]) was 2.5%, the inhibition (Mus musculus) was “Active” and the “fold change (FC)” value (A549 [23]) was 4.09. The Activity [24] was “inactive” and the inhibition [25] was “Dose-dependent effect”.
